Reference: patent US9975903B2, “Condensed heterocyclic compound” (Takeda Pharmaceutical Company Limited, priority 2014, dated 2018)
Where a name gives a salt, the structure may show the parent alone. Read-outs that look alike come from different tables or passages of the source.

Legend:
[1] = molecular target: T1, Human recombinant enteropeptidase (Homo sapiens, UniProt P98073); assay: Human enteropeptidase inhibitory activity (Test Example 1); format: biochemical; settings: for inhibition at 3.3 µM: read-out: 3.3 μM Inhibition
T1 construct: purchased ITSI-Biosciences LLC #REN-260
T1 sequence (P98073 whole entry): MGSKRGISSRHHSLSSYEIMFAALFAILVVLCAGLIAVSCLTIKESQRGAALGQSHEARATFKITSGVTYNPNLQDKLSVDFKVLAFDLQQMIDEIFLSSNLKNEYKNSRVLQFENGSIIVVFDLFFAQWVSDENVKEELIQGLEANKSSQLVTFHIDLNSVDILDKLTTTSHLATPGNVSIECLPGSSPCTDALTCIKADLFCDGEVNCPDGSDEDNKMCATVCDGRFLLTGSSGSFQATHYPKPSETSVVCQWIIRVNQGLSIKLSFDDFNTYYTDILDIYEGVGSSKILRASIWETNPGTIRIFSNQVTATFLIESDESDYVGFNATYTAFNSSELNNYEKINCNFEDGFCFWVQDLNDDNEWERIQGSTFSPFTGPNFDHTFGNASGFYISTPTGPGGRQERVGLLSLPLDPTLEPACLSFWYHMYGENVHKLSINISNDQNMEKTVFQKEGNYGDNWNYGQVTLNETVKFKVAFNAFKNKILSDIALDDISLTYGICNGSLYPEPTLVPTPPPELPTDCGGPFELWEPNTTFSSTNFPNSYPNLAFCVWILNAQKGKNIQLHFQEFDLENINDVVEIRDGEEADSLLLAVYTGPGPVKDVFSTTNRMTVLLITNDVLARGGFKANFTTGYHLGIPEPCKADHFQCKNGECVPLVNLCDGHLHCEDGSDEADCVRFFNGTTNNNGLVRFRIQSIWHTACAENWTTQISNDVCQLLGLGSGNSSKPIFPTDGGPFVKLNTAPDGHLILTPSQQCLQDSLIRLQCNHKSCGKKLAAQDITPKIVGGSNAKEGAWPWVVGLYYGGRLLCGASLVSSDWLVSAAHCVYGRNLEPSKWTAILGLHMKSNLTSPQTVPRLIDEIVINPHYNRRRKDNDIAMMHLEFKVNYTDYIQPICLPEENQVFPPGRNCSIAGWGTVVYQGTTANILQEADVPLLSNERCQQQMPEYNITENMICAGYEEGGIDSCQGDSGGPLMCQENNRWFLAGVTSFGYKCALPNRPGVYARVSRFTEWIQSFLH
In short: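 Recombinant human enteropeptidase in 50 mM Tricine pH 8.0, 0.01% Tween 20, 10 mM CaCl2, with a 5FAM/CPQ2-quenched peptide substrate (2.1 μM solution before mixing). Compound came from 1 mM DMSO stock diluted 100-fold in buffer. Fluorescence (ex 485/em 535 nm) at 2 h gave % inhibition versus no-compound and no-enzyme controls.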

[2] = tested on: High fat diet-fed (HFD-fed) mice; assay: Fecal protein concentration-increasing test using HFD-fed mouse (Test Example 2-2); format: in vivo; settings: male, 47-week old, 10 mg/kg orally, whole feces of first day of administration, average ± standard deviation, five mice
Procedure: (§1) High fat diet-fed (HFD-fed) mice (D12079B diet, male, 47-week old) were orally administered with a 0.5% methyl cellulose suspension containing a test compound (10 mg/kg) (compound administration group, five mice per group) or a 0.5% methyl cellulose suspension (compound non-administration group (vehicle), five mice per group), and whole feces were collected on the first day of administration. Dried feces were dissolved in 0.5 N NaOH, followed by centrifugation at 12,000 rpm. The protein concentration in the supernatant was quantitatively measured (Lowry method), and the amount of protein contained in 1 g of feces was calculated as the fecal protein concentration (mg/g feces). The average and the standard deviation of each group are shown below.

[3] = tested on: Diet-induced obesity (DIO) mice; assay: Anti-obesity effect test using DIO mouse (Test Example 3); format: in vivo; settings: male, 32-week old, average ± standard deviation, six mice
Procedure: Diet-induced obesity (DIO) mice (D12079B diet, male, 32-week old) were orally administered with a 0.5% methyl cellulose suspension containing a test compound (10 mg/kg) (compound administration group, six mice per group) or a 0.5% methyl cellulose suspension (compound non-administration group (vehicle), six mice per group) once a day for one week. The averages and the standard deviations of the body weights at the start of administration and after continuous administration for one week are shown below.

[4] = tested on: High fat diet-fed (HFD-fed) mice; assay: Fecal protein concentration-increasing test using HFD-fed mouse (Test Example 2-1); format: in vivo; settings: male, 19-week old, 10 mg/kg orally, whole feces of first day of administration, average ± standard deviation, six mice
Procedure: as §1, with “diet, male, 19-week old) were” for “diet, male, 47-week old) were”, “administration group, six mice per” for “administration group, five mice per”, “supernatant was then quantitatively measured” for “supernatant was quantitatively measured”

[5] = 3.3 μM test compound, inhibition rate from fluorescence intensity at 2 hours after the start of the reaction

inhibition at 3.3 µM [1, 5] [%]	Compound	Fecal protein concentration (mg/g feces) [2] [mg/g feces]	other results
101	N=C(N)Nc1ccc2c(c1)CCCOc1c(cccc1C(=O)N(CC(=O)O)[C@@H](Cc1ccc(OCCN(CC(=O)O)Cc3ccccc3)cc1)C(=O)O)OC2=O [Example 122, O-(2-(Benzyl(carboxymethyl)amino)ethyl)-N-((10-carbamimidamido-13-oxo-6,7,8,13-tetrahydrodibenzo[b,f][1,4]dioxecin-4-yl)carbonyl)-N-(carboxymethyl)-L-tyrosine]	165.4 ± 16.2	
101	N=C(N)Nc1ccc2c(c1)CCCOc1c(cccc1C(=O)N(CCN(CC(=O)O)CC(=O)O)CC(=O)O)OC2=O [Example 120, N-(2-(Bis(carboxymethyl)amino)ethyl)-N-((10-carbamimidamido-13-oxo-6,7,8,13-tetrahydrodibenzo[b,f][1,4]dioxecin-4-yl)carbonyl)glycine]	194.6 ± 48.1	
100	N=C(N)Nc1ccc2c(c1)CCCOc1c(cccc1C(=O)N(Cc1cccc(C(=O)O)c1)[C@@H](CC(=O)O)C(=O)O)OC2=O [Example 136, N-((10-Carbamimidamido-13-oxo-6,7,8,13-tetrahydrodibenzo[b,f][1,4]dioxecin-4-yl)carbonyl)-N-(3-carboxybenzyl)-L-aspartic acid]	274.3 ± 74.6	
101	COc1ccc(C[C@@H](C(=O)O)N(CC(=O)O)C(=O)c2cccc3c2OCCCc2cc(NC(=N)N)ccc2C(=O)O3)cc1 [Example 94, N-((10-Carbamimidamido-13-oxo-6,7,8,13-tetrahydrodibenzo[b,f][1,4]dioxecin-4-yl)carbonyl)-N-(carboxymethyl)-O-methyl-L-tyrosine]	201.0 ± 21.8	
100	C[C@@H](C(=O)O)N(Cc1cccc(C(=O)O)c1)C(=O)c1cccc2c1OCCCc1cc(NC(=N)N)ccc1C(=O)O2 [Example 135, 3-((((10-Carbamimidamido-13-oxo-6,7,8,13-tetrahydrodibenzo[b,f][1,4]dioxecin-4-yl)carbonyl) ((1S)-1-carboxyethyl)amino)methyl)benzoic acid]		
100	N=C(N)Nc1ccc2c(c1)CCCOc1c(cccc1C(=O)N(CCC(=O)O)[C@@H](CC(=O)O)C(=O)O)OC2=O [Example 138, N-((10-carbamimidamido-13-oxo-6,7,8,13-tetrahydro-dibenzo[b,f] [1,4]dioxecin-4-yl)carbonyl)-N-(2-carboxyethyl)-L-aspartic acid]		

The next lines start with the molecule.

Compound	inhibition at 3.3 µM [1, 5] [%]	Fecal protein concentration (mg/g feces) [2] [mg/g feces]	other results
N=C(N)Nc1ccc2c(c1)CCCOc1c(cccc1C(=O)N[C@@H](CC(=O)O)C(=O)O)OC2=O [Example 3, N-((10-Carbamimidamido-13-oxo-6,7,8,13-tetrahydrodibenzo[b,f][1,4]dioxecin-4-yl)carbonyl)aspartic acid]			3.3 μM Inhibition [1, 5]: 101%; Body Weight (g) After continuous administration for one week ([3]; 10 mg/kg orally once a day for one week): 41.4 ± 2.2 g; Body Weight (g) Start of administration ([3]; group given 10 mg/kg orally once a day, baseline): 44.5 ± 2.2 g; Fecal protein concentration (mg/g feces) [4]: 233.3 ± 35.9 mg/g feces
N=C(N)Nc1ccc2c(c1)CCCOc1c(ccc(CCC(=O)O)c1C(=O)N(CC(=O)O)Cc1cccc(C(=O)O)c1)OC2=O [Example 145, 3-((((10-Carbamimidamido-3-(2-carboxyethyl)-13-oxo-6,7,8,13-tetrahydrodibenzo[b,f][1,4]dioxecin-4-yl)carbonyl) (carboxymethyl)amino)methyl)benzoic acid]	99	201.3 ± 45.3	
N=C(N)Nc1ccc2c(c1)CCCOc1c(cccc1C(=O)N(CC(=O)O)Cc1cccc(C(=O)O)c1)OC2=O [Example 71, 3-((((10-Carbamimidamido-13-oxo-6,7,8,13-tetrahydrodibenzo[b,f][1,4]dioxecin-4-yl)carbonyl) (carboxymethyl)amino)methyl)benzoic acid]	100		
N=C(N)Nc1ccc2c(c1)CCCOc1c(ccc(CCC(=O)N(CC(=O)O)CC(=O)O)c1C(=O)N[C@@H](Cc1ccc(O)cc1)C(=O)O)OC2=O [Example 124, N-((3-(3-(bis(carboxymethyl)amino)-3-oxopropyl)-10-carbamimidamido-13-oxo-6,7,8,13-tetrahydro-dibenzo[b,f] [1,4]dioxecin-4-yl)carbonyl)-L-tyrosine]	101		
N=C(N)Nc1ccc2c(c1)CCCOc1c(cccc1C1=NOC(CC(=O)O)(C(=O)O)C1)OC2=O (centres unmarked) [Example 23, 3-(10-Carbamimidamido-13-oxo-6,7,8,13-tetrahydrodibenzo[b,f][1,4]dioxecin-4-yl)-5-(carboxymethyl)-4,5-dihydro-1,2-oxazole-5-carboxylic acid]	102		
N=C(N)c1ccc2c(c1)CCc1ccccc1C(=O)O2 [Example 59, 6-Oxo-11,12-dihydro-6H-dibenzo[b,f]oxocine-2-carboximidamide trifluoroacetate]			inhibition at 3.3 µM [1]: 57%
